Columns and labels:
SIRT1 = target: T1, SIRT1 (Homo sapiens, UniProt Q96EB6); assay: Continuous PNC1-GDH-coupled assay of SIRT1-catalyzed deacetylation of Ac-Arg-His-Lys-Lys^Ac-X with STACs; type: biochemical; details: for Relative Velocity, X=Ala-NH2: Ac-Arg-His-Lys-Lys^Ac-Ala-NH2; for Relative Velocity, X=NH2: Ac-Arg-His-Lys-Lys^Ac-NH2
T1 sequence (Q96EB6 1-747): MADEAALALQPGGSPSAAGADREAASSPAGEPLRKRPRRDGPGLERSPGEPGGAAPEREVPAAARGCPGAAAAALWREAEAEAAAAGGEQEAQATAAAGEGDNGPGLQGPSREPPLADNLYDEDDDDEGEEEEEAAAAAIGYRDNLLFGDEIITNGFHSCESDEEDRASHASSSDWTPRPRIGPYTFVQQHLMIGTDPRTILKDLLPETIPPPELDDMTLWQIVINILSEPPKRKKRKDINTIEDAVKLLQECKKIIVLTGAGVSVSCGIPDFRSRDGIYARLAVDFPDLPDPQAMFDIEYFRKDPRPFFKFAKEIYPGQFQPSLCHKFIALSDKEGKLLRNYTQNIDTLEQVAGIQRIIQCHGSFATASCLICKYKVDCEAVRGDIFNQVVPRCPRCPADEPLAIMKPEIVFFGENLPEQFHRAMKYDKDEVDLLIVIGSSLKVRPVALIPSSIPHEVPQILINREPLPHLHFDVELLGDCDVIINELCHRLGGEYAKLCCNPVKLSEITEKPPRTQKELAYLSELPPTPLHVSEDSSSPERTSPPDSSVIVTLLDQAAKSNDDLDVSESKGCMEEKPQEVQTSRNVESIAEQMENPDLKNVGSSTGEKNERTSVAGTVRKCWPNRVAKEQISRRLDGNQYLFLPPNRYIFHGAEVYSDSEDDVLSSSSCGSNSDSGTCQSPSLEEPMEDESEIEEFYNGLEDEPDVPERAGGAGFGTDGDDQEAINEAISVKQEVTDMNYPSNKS
Procedure: Bovine glutamate dehydrogenase (GDH), α-ketoglutarate, NADH and NAD^+ were from Sigma Chemical Company. […] The nicotinamidase PNC1 was prepared as described by Denu and colleagues (Smith et al. (2009) Anal Biochem 394, 101-109). To determine the interaction of STACs with SIRT1 two kinetic methods were employed. […] (2007) Nature 450, 712-716). The other, used with peptides of general structure […], used a continuous, enzyme-coupled method reported previously (Smith et al. (2009) Anal Biochem 394, 101-109), in which the SRT1 product nicotinamide is first converted into nicotinic acid and ammonia by the action of PNC1, and the ammonia then used by GDH to convert α-ketoglutarate into glutamate. This reaction occurs with oxidation of NADH to NAD^+ which is accompanied by a change in absorbance at 340 nm (Δε340=-6,200 M^-1 cm^-1). The kinetic experiments used to characterize activators were run on a Perkin Elmer Lambda 25 spectrophotometer equipped with a water-jacketed, eight-cell changer maintained at 25° C. In a typical kinetic experiment, all components of the reaction solution except SIRT1 were added to a 1 mL cuvette and allowed to reach thermal equilibrium. Final concentrations of the coupling system components were: 1 μM PNC1, 0.23 mM NADH, 3.4 mM α-ketoglutarate, and 20 U/mL bovine GDH. This solution also contained peptide substrate, NAD^.0., and activator, at concentrations indicated in the text. The final DMSO concentration was kept constant at 1%, and the buffer used in these experiments was 50 mM HEPES, 150 mM NaCl, pH 7.5. While the system was reaching thermal equilibrium, the absorbance was monitored to provide an accurate estimate of the background rate, which was subtracted from the reaction rate after the addition of SIRT1. Activator titrations were plotted as relative velocity (i.e., the ratio of vx, velocity in the presence of activator X, to vo, velocity in the absence of activator) vs. [X]o, initial concentration of activator, and fit by nonlinear least-squares to the mechanism-independent expression for enzyme activation of […] the maximum relative velocity (i.e., vx/vo at infinite [X]o) and EC50 is the activator concentration at which vx/vo=(RVmax-1)/2. EC50 is a function of the kinetic mechanisms of both catalysis and activation, and the concentrations of substrates.

[1] = target: Ac-Arg-His-Lys-Lys^Ac-Trp-NH2; assay: ITC binding of STACs to Ac-Arg-His-Lys-Lys^Ac-X, X=TrpNH2; details: 10% DMSO for SRT1720, SRT2183 and 10, no cosolvent for SRT1460
Procedure: ITC experiments were performed using either a VP-ITC system or iTC200 system (MicroCal) at 26° C. in a buffer composed of 137 mM NaCl, 2.7 mM KCl, 1 mM MgCl2, 2 mM TCEP, 5% (v/v) glycerol and 50 mM HEPES-NaOH, pH 7.3. SIRT1(183-664) was purified and dialyzed against the buffer, centrifuged, and degassed before the experiment. The peptide and compounds were dissolved in the final dialysis buffer and their pH values were adjusted to match that of the protein solution. […] To characterize this interaction using the iTC200 system, 1 mM TAMRA-peptide was injected in 20 aliquots of 2 μL, (except the first injection, which was 0.5 μL) into a 0.202 mL sample cell containing 100 μM STAC. For STACs with poor solubility, the concentrations were adjusted accordingly. […] In all cases, data was corrected for the heat of dilution and fitted using a nonlinear least-squares routine using a single-site binding model with Origin for ITC v7.0383 (Microcal) with the stoichiometry (n), the enthalpy of the reaction (ΔH) and the association constant (Ka) calculated. Table 2 summarizes Kd values for the binding of STACs to […]. Note that except for SRT1460, the solubility of the compounds required that these ITC experiments be done in solutions containing 10% DMSO.

[2] = [SRT]o = 5 μM, [peptide]o ≦ Km, [NAD+] = 70 μM
[3] = full titration, 3-5 independent experiments

Row | SMILES | Relative Velocity, X=AMC (SIRT1; [SRT]o = 5 μM, [peptide]o ≦ Km, [NAD+] = 70 μM, Ac-Arg-His-Lys-Lys^Ac-AMC, listed as 22) | Relative Velocity, X=Ala-NH2 (SIRT1; [2]) | Relative Velocity, X=NH2 (SIRT1; [2]) | Relative Velocity, X=NH2 (SIRT1; [SRT]o = 5 μM, [peptide]o ≦ Km, [NAD+] = 70 μM, listed as 22) | Relative Velocity, X=Trp-NH2 (SIRT1; [SRT]o = 5 μM, [peptide]o ≦ Km, [NAD+] = 70 μM, Ac-Arg-His-Lys-Lys^Ac-Trp-NH2, listed as 22) | EC1.5 for activation of deacetylation of Ac-Arg-His-Lys-Lys^Ac-X, X=AMC (SIRT1; [3]) [µM] | EC1.5 for activation of deacetylation of Ac-Arg-His-Lys-Lys^Ac-X, X=TrpNH2 (SIRT1; [3]) [µM] | Kd [1] [µM] | Kd for binding to Ac-Arg-His-Lys-Lys^Ac-X, X=TrpNH2 [1] | EC1.5 for activation of deacetylation of Ac-Arg-His-Lys-Lys^Ac-X, X=PheNH2 (SIRT1; [3]) [µM] | RVmax for activation of deacetylation of Ac-Arg-His-Lys-Lys^Ac-X, X=TrpNH2 (SIRT1; [3]) | EC50 (SIRT1; full titration, 3-5 independent experiments, read-out: EC50 for activation of deacetylation of Ac-Arg-His-Lys-Lys^Ac-X, X=TrpNH2) [µM]
1 | CCCCc1nc(NC2CCNCC2)cc(C(=O)Nc2ccccc2-c2nc3cc(COC4CCNCC4)cnc3s2)n1 [Compound 10, 2-butyl-6-(piperidin-4-ylamino)-N-(2-(6-((piperidin-4-yloxy)methyl)thiazolo[5,4-b]pyridin-2-yl)phenyl)pyrimidine-4-carboxamide] | activates | 0.3 | 0.6 | inhibits | activates | 3.1 | 1.9 | 25 | binds |  |  | 
2 | COc1cc(C(=O)Nc2ccccc2-c2cn3c(CN4CCNCC4)csc3n2)cc(OC)c1OC [SRT1460] |  | 1.1 | 0.8 |  |  |  | 5.0 | > 500 |  | 26.0 | 4.1±0.1 | 27 ± 8
